Measured values taken from the NIST ThermoML archive (doi:10.1016/j.jct.2018.08.004).

Assay: xn = mol fraction of the nth substance listed
Conditions: for surface tension liquid-gas: Maximal bubble pressure; for mass density: 100 kPa, Liquid, Vibrating tube method

CCCC[n+]1ccccc1.N#C[N-]C#N [1-butylpyridinium dicyanamide] + CC(C)O
Conditions | mass density [kg/m3] | surface tension liquid-gas [mN/m]
288.15 K, x1 = 0.1008 | 857.57 | 23.3
288.15 K, x1 = 0.2007 | 906.69 | 25.7
288.15 K, x1 = 0.3005 | 944.56 | 26.9
288.15 K, x1 = 0.3999 | 974.5 | 28.5
288.15 K, x1 = 0.5005 | 999.39 | 30.5
288.15 K, x1 = 0.5998 | 1019.53 | 33.2
288.15 K, x1 = 0.7004 | 1036.66 | 35.9
288.15 K, x1 = 0.7972 | 1050.66 | 39.9
288.15 K, x1 = 0.9032 | 1063.81 | 45.5
288.15 K, x1 = 1 | 1074.97 | 56.3
293.15 K, x1 = 0.1008 | 853.79 | 22.8
293.15 K, x1 = 0.2007 | 903.11 | 25.2
293.15 K, x1 = 0.3005 | 941.13 | 26.7
293.15 K, x1 = 0.3999 | 971.16 | 28
293.15 K, x1 = 0.5005 | 996.12 | 30.2
293.15 K, x1 = 0.5998 | 1016.32 | 32.9
293.15 K, x1 = 0.7004 | 1033.49 | 35.7
293.15 K, x1 = 0.7972 | 1047.51 | 39.6
293.15 K, x1 = 0.9032 | 1060.69 | 45.2
293.15 K, x1 = 1 | 1071.9 | 56
298.15 K, x1 = 0.1008 | 849.98 | 22.3
298.15 K, x1 = 0.2007 | 899.51 | 24.8
298.15 K, x1 = 0.3005 | 937.68 | 26.2
298.15 K, x1 = 0.3999 | 967.82 | 27.8
298.15 K, x1 = 0.5005 | 992.86 | 29.9
298.15 K, x1 = 0.5998 | 1013.12 | 32.5
298.15 K, x1 = 0.7004 | 1030.32 | 35.3
298.15 K, x1 = 0.7972 | 1044.37 | 39.3
298.15 K, x1 = 0.9032 | 1057.57 | 44.9
298.15 K, x1 = 1 | 1068.83 | 55.7
303.15 K, x1 = 0.1008 | 846.14 | 22
303.15 K, x1 = 0.2007 | 895.9 | 24.5
303.15 K, x1 = 0.3005 | 934.24 | 25.9
303.15 K, x1 = 0.3999 | 964.49 | 27.5
303.15 K, x1 = 0.5005 | 989.61 | 29.6
303.15 K, x1 = 0.5998 | 1009.92 | 32.3
303.15 K, x1 = 0.7004 | 1027.16 | 35.1
303.15 K, x1 = 0.7972 | 1041.24 | 39.1
303.15 K, x1 = 0.9032 | 1054.46 | 44.7
303.15 K, x1 = 1 | 1065.76 | 55.5
308.15 K, x1 = 0.1008 | 842.28 | 21.6
308.15 K, x1 = 0.2007 | 892.3 | 24.1
308.15 K, x1 = 0.3005 | 930.8 | 25.5
308.15 K, x1 = 0.3999 | 961.18 | 27.1
308.15 K, x1 = 0.5005 | 986.37 | 29.3
308.15 K, x1 = 0.5998 | 1006.74 | 32
308.15 K, x1 = 0.7004 | 1024.02 | 34.8
308.15 K, x1 = 0.7972 | 1038.13 | 38.8
308.15 K, x1 = 0.9032 | 1051.37 | 44.4
308.15 K, x1 = 1 | 1062.7 | 55.2
313.15 K, x1 = 0.1008 | 838.39 | 21.3
313.15 K, x1 = 0.2007 | 888.69 | 23.8
313.15 K, x1 = 0.3005 | 927.36 | 25.2
313.15 K, x1 = 0.3999 | 957.86 | 26.8
313.15 K, x1 = 0.5005 | 983.14 | 29
313.15 K, x1 = 0.5998 | 1003.56 | 31.7
313.15 K, x1 = 0.7004 | 1020.89 | 34.5
313.15 K, x1 = 0.7972 | 1035.03 | 38.5
313.15 K, x1 = 0.9032 | 1048.3 | 44.1
313.15 K, x1 = 1 | 1059.66 | 54.9
318.15 K, x1 = 0.1008 | 834.48 | 20.8
318.15 K, x1 = 0.2007 | 885.06 | 23.4
318.15 K, x1 = 0.3005 | 923.93 | 24.9
318.15 K, x1 = 0.3999 | 954.55 | 26.5
318.15 K, x1 = 0.5005 | 979.93 | 28.6
318.15 K, x1 = 0.5998 | 1000.4 | 31.4
318.15 K, x1 = 0.7004 | 1017.77 | 34.2
318.15 K, x1 = 0.7972 | 1031.94 | 38.2
318.15 K, x1 = 0.9032 | 1045.24 | 43.8
318.15 K, x1 = 1 | 1056.64 | 54.5

CCCC[n+]1ccccc1.N#C[N-]C#N [1-butylpyridinium dicyanamide] + CCO
Conditions | mass density [kg/m3] | surface tension liquid-gas [mN/m]
288.15 K, x1 = 0.0999 | 877.29 | 25.7
288.15 K, x1 = 0.201 | 930.73 | 28
288.15 K, x1 = 0.2996 | 967.04 | 30.3
288.15 K, x1 = 0.3993 | 994.22 | 33.2
288.15 K, x1 = 0.4897 | 1013.42 | 35.8
288.15 K, x1 = 0.6017 | 1032.37 | 38.3
288.15 K, x1 = 0.693 | 1044.81 | 40.9
288.15 K, x1 = 0.7974 | 1056.62 | 44.5
288.15 K, x1 = 0.905 | 1066.7 | 50.3
288.15 K, x1 = 1 | 1074.97 | 56.3
293.15 K, x1 = 0.0999 | 873.42 | 25.1
293.15 K, x1 = 0.201 | 927.12 | 27.5
293.15 K, x1 = 0.2996 | 963.57 | 29.8
293.15 K, x1 = 0.3993 | 990.86 | 32.9
293.15 K, x1 = 0.4897 | 1010.13 | 35.5
293.15 K, x1 = 0.6017 | 1029.14 | 38
293.15 K, x1 = 0.693 | 1041.62 | 40.6
293.15 K, x1 = 0.7974 | 1053.47 | 44.2
293.15 K, x1 = 0.905 | 1063.59 | 50
293.15 K, x1 = 1 | 1071.9 | 56
298.15 K, x1 = 0.0999 | 869.54 | 24.6
298.15 K, x1 = 0.201 | 923.5 | 27.1
298.15 K, x1 = 0.2996 | 960.1 | 29.5
298.15 K, x1 = 0.3993 | 987.5 | 32.6
298.15 K, x1 = 0.4897 | 1006.84 | 35.2
298.15 K, x1 = 0.6017 | 1025.91 | 37.7
298.15 K, x1 = 0.693 | 1038.43 | 40.3
298.15 K, x1 = 0.7974 | 1050.31 | 43.9
298.15 K, x1 = 0.905 | 1060.48 | 49.7
298.15 K, x1 = 1 | 1068.83 | 55.7
303.15 K, x1 = 0.0999 | 865.66 | 24.2
303.15 K, x1 = 0.201 | 919.87 | 26.7
303.15 K, x1 = 0.2996 | 956.64 | 29.1
303.15 K, x1 = 0.3993 | 984.14 | 32.3
303.15 K, x1 = 0.4897 | 1003.56 | 34.9
303.15 K, x1 = 0.6017 | 1022.7 | 37.4
303.15 K, x1 = 0.693 | 1035.25 | 40
303.15 K, x1 = 0.7974 | 1047.18 | 43.6
303.15 K, x1 = 0.905 | 1057.35 | 49.4
303.15 K, x1 = 1 | 1065.76 | 55.5
308.15 K, x1 = 0.0999 | 861.77 | 23.8
308.15 K, x1 = 0.201 | 916.25 | 26.3
308.15 K, x1 = 0.2996 | 953.18 | 28.8
308.15 K, x1 = 0.3993 | 980.79 | 31.9
308.15 K, x1 = 0.4897 | 1000.29 | 34.5
308.15 K, x1 = 0.6017 | 1019.5 | 37
308.15 K, x1 = 0.693 | 1032.09 | 39.7
308.15 K, x1 = 0.7974 | 1044.05 | 43.3
308.15 K, x1 = 0.905 | 1054.26 | 49.1
308.15 K, x1 = 1 | 1062.7 | 55.2
313.15 K, x1 = 0.0999 | 857.88 | 23.4
313.15 K, x1 = 0.201 | 912.63 | 25.9
313.15 K, x1 = 0.2996 | 949.73 | 28.3
313.15 K, x1 = 0.3993 | 977.47 | 31.4
313.15 K, x1 = 0.4897 | 997.04 | 34.1
313.15 K, x1 = 0.6017 | 1016.31 | 36.7
313.15 K, x1 = 0.693 | 1028.95 | 39.4
313.15 K, x1 = 0.7974 | 1040.95 | 43.1
313.15 K, x1 = 0.905 | 1051.18 | 48.8
313.15 K, x1 = 1 | 1059.66 | 54.9
318.15 K, x1 = 0.0999 | 853.98 | 22.7
318.15 K, x1 = 0.201 | 909.01 | 25.4
318.15 K, x1 = 0.2996 | 946.29 | 27.9
318.15 K, x1 = 0.3993 | 974.15 | 31.1
318.15 K, x1 = 0.4897 | 993.79 | 33.8
318.15 K, x1 = 0.6017 | 1013.14 | 36.4
318.15 K, x1 = 0.693 | 1025.82 | 39
318.15 K, x1 = 0.7974 | 1037.86 | 42.7
318.15 K, x1 = 0.905 | 1048.12 | 48.6
318.15 K, x1 = 1 | 1056.64 | 54.5
